From patent US20250064756A1, “NANOCRYSTALLINE TIO2 AND ZNO ORGANOSELENIUM SCAFFOLDS POSSESING DISELENIDE (SE-SE) FUNCTIONALITY FOR BIOMEDICAL TECHNOLOGY” (KING FAISAL UNIVERSITY, priority 2023, published 2025)
Values joined by “and” are separate entries in the source; they are usually repeats but may differ in a detail not shown here. Equal values may be shown once.

Columns and labels:
Assay in all cases: Antimicrobial activity, agar diffusion assay
Type in all cases: cell-based
B. subtilis (+ve) = conditions: for A %: Cip. = 100
Procedure: (§1) All reagents and solvents used in these studies were purchased from Sigma and used without purification. Melting points (MP) were measured on the Gallenkamp apparatus in degrees centigrade. The IR spectra (KBr, λmax·cm^−1) were recorded on a Mattson spectrophotometer (5000 FTIR) at King Faisal University. The ^1H & ^13C NMR spectra were measured using Varian Spectrophotometer (400 MHz), employing DMSO-d6 as the solvent and TMS internal standard at Mansoura University. The chemical shifts (δ, ppm) were recorded regarding the solvent residual peaks. GC-MS-QP-100 EX Shimadzu apparatus was used for mass measurements at Cairo University. All biological tests were carried out at the Faculty of Pharmacy, Mansoura University. All cell lines and microorganisms were purchased from the VACSERA Company (ATCC), Cairo, Egypt. DPPH and ABTS probes were obtained from Sigma.
(§2) In General, the diaryl diselenide B manifested promising antimicrobial activity against E. coli (A %=83%), S. aureus (A %=86%), and C. Albicans (A %=88%).

E. coli (−ve) = conditions: for A %: Cip. = 100
Procedure: as §1, §2

S. aureus (+ve) = conditions: for A %: Cip. = 100
Procedure: as §1, §2

P. aeruginosa (−ve) = conditions: for A %: Cip. = 100
Procedure: as §1, §2

A. flavus = system: A. flavus
Procedure: as §1, §2

C. albicans = conditions: for A %: Col. = 100
Procedure: as §1, §2

| SMILES | IZD (agar diffusion assay diameter) (B. subtilis (+ve)) [mm] | A % (B. subtilis (+ve)) [%] | IZD (agar diffusion assay diameter) (E. coli (−ve)) [mm] | A % (E. coli (−ve)) | IZD (agar diffusion assay diameter) (S. aureus (+ve)) [mm] | A % (S. aureus (+ve)) [%] | IZD (agar diffusion assay diameter) (P. aeruginosa (−ve)) [mm] | A % (P. aeruginosa (−ve)) [%] | IZD (agar diffusion assay diameter) (A. flavus) [mm] | A % (A. flavus; Col. = 100) [%] | IZD (agar diffusion assay diameter) (C. albicans) [mm] | A % (C. albicans) [%] |
| --- | --- | --- | --- | --- | --- | --- | --- | --- | --- | --- | --- | --- |
| O=C(O)c1cn(C2CC2)c2cc(N3CCNCC3)c(F)cc2c1=O [Cip., reference compound] | 23 | 100 | 26 | 100% | 24 | 100 | 23 | 100 |  |  |  |  |
| Nc1ccc([Se][Se]c2ccc(N)cc2)cc1 [Compound A] | 15 | 65 | 14 | 54% and 62% and 65% | 17 | 71 | 11 | 48 | 8 | 32 | 12 | 44 |
| COC(=O)c1cc([Se][Se]c2ccc(N)c(C(=O)OC)c2)ccc1N [Compound B, dimethyl 5,5-diselanediylbis(2-aminobenzoate)] |  |  | 19 | 83% | 18 | 86 |  |  |  |  | 21 | 88 |
